# In ChEMBL document CHEMBL1138279, “Platelet-activating factor (PAF) receptor binding antagonists from Alpinia officinarum” (Bioorg Med Chem Lett, 2007):
# Test: Displacement of [3H]PAF from rabbit PAF receptor
# Design: species or system Oryctolagus cuniculus
row,IC50 [nM],SMILES
1,5000,O=C(/C=C/CCc1ccccc1)CCc1ccccc1
2,1600,COC(CCc1ccccc1)CC(=O)CCc1ccccc1 (stereo not drawn)
3,1300,O=C(/C=C/C(O)Cc1ccccc1)CCc1ccccc1 (stereo not drawn)
